The numbers were not newly measured in article PMC10940605, “Design, synthesis and in vitro anticancer activity of some new lomefloxacin derivatives” (Scientific Reports, 2024), which cites them from elsewhere.

As a reminder, the IC50 is the concentration that inhibits the measured activity by half.

The structures appear in SMILES notation.

One series deals with Topoisomerase II. More on the design: method as in PMID 10051540, PMID 8824299, PMID 9651360. As to conditions: Topoisomerase II catalytic inhibitor, Fig. 1; cited from earlier work.
For a further series, the system named is HCT-8 cancer cell lines. More on the design: method as in PMID 22301863. The settings on record: HCT-8, Fig. 2; cited from earlier work.
The test system of another series is MCF-7 cancer cell lines. More on the design: method as in PMID 22301863. As to conditions: MCF-7, Fig. 2; cited from earlier work.
The test system of series [1] is SMMC7721 cancer cell lines. More on the design: method as in PMID 22301863. The settings on record: SMMC7721, Fig. 2; cited from earlier work.

Consider `O=C1NC(=S)NC(=O)C1C(=O)Nc1ccccc1` [Merbarone], for which the IC50 at Topoisomerase II is 20 µM.

With `O=C(N/N=C/c1ccc2c(c1)OCO2)c1cn(C2CC2)c2cc(N3CCNCC3)c(F)cc2c1=O` [QNT4], the IC50 was 3.69 µM in the series with HCT-8 cancer cell lines, 3.71 µM in the series on MCF-7 cancer cell lines and 2.96 µM in series [1].
